# Test results as given in patent US20150064221A1, “COMPOUNDS HAVING IMMUNOMUDULATOR ACTIVITY” (priority 2012, published 2015).
# Entries after “also recorded” stand apart in the source; their conditions may differ.
# Key:
# LPS-induced lethality = assay: LPS-induced lethality; format: in vivo, mice
# Protocol: VGX-1027 was administered intraperitoneally (A) or orally (p.o.) (B), and its effect on cumulative rate of lethality induced by LPS was evaluated. Data from 2 to 3 independent experiments are shown. Statistical analysis was performed by logrank (Mantel-Cox). *p<0.05 was taken as significant. Each group is compared to the vehicle-treated group.
# As expected, most of the control mice either untreated or that received the vehicle of VGX-1027 succumbed to LPS-challenge within 3 days. […] In contrast, the treatment with VGX-1027 given either orally or intraperitoneally administration protect the mice from the lethal effects of LPS in a dose-dependent fashion. When given orally, VGX-1027 was effective at the dose of […] and […] both at 1.5 and 3 mg/mouse.
# Lipopolysaccharide (LPS) is the most studied of all TLR agonists because it induces both local and systemic inflammation, and responses to LPS mimic many of the features of tissue injury observed during infections with Gram-negative bacteria. Injection of LPS into mice triggers production of inflammatory cytokines and symptoms that are indistinguishable from those of septic shock.
# DNBS-induced colitis = assay: DNB/DNBS-induced colitis; format: in vivo, mice
# Protocol: Mice were injected with DNBS into the rectum and administered VGX-1027 an hour later; 4 days after, the mice were sacrificed, and the colons were isolated and analyzed. Variation in total body weight (A), stool consistency (B), macroscopic score (C), necrotic areas 9D), colon weight (E), and amount of cytokines in colon homogenate were determined Macroscopic score was determined by the following criteria: 0=no damage; 1=localized hyperaemia and/or oedema; 2=linear ulcer<half of the width of the colon; 3=linear ulcer>half the width of the colon; 4=circular ulcer<1 cm; 5=circular ulcer between 1 and 2 cm; 6=circular ulcer>2 cm.
# Within 5 days after challenge with dinitrobenzene sulfonic acid (DNB), mice develop colitis. The disease severity is evaluated based on a macroscopic score. The vehicle-treated control mice and untreated mice developed colitis with a predictable and progressive increase in inflammation and body weight loss.
# The colons of the control mice and of the VGX-1027 treated mice were removed, sectioned, fixed, and stained with hematoxylin and eosin. […] The tissue myeloperoxidase activity is a well established marker to assess the inflammatory cell (mainly neutrophils) infiltration. […] We counted an average of 8.9±1.2 (means±SD) cells/high power field of DNB-induced animals, whereas there were only 3.37±0.8 cells/high-power field in DNB-induced animals pretreated with VGX-1027 (p<0.0001).
# DNBS challenge of mice induced clinical features of colitis including weight loss, diarrhea, intestinal damage, and necrotic regions (FIG. 11a-d). […] An increase in the weight of the colon is an indirect measure of increased thickness of the walls due to inflammation.
# [1] = system: RIN-m5F and MIN6 insulinoma cell lines; assay: Cytokine-stimulated insulinoma cell lines; format: cell-based
# Protocol: Both results were determined 48 hours post stimulation, and VGX-1027 was added at the time of stimulation.
# Insulinoma cell lines, which die following stimulation with either IL-1β/INF-γ or TNF-α/INF-γ, were used in this study. Specifically, cell lines RIN-m5F and MIN6 were treated with either IL-1β/INF-γ alone or IL-1β/INF-γ/VGX-1027, and TNF-α production, which is a consequence of stimulation with these factors, was measured.
# [2] = system: endotoxin-induced uveitis; assay: Endotoxin-induced uveitis (EIU); format: in vivo, Lewis rats
# Protocol: Rats were treated with VGX-1027 at 30 minutes (A) and 6 and 12 hours (B) after LPS injection […]). […] were evaluated 16 hours post LPS injection. Dexamethasone (1 mg/kg) was administered as a positive control. *p<0.0001 vs. vehicle.
# Chronic intraocular inflammation denotes a heterogeneous group of diseases that is a leading cause of acquired blindness in adults. Uveitis refers to inflammation of the uvea, which is the vascular tunic or middle coat of the eye, and is responsible for approximately 3% of blindness in the United States. Unlike other autoimmune conditions with known etiologies, uveitis manifests in a number of inflammatory syndromes including Crohn's disease, Behcet's disease, sarcoidosis, and others (Yeh et al., Semin. Immunopathol., (30) 145-164 (2008)). To study the possible utility of VGX-1027 in treating ocular inflammatory conditions, we injected LPS into footpads of Lewis Rats to induce uveitis. After 16 hours post LPS injection, the rats were sacrificed, and their eyes and aqueous humor were collected to study serological, immunological, and histological signs of EIU. The development of EIU was graded on the following scale: (0) no inflammatory reaction; (1) discrete dilatation of the iris and conjunctival vessels; (2) moderate dilatation of the iris and conjunctival vessels; (3) intense iridal hyperaemia with flare in anterior chamber; and (4) same clinical signs as grade 3 plus the presence of fibrinous exudate in the pupillary area with intense flare in the anterior chamber.
# [3] = DNBS, treatment from 1 hour after DNBS
smiles,measurement,setting,value
"O=C(O)CC1CC(c2ccccc2)=NO1 (stereo not drawn) [VGX-1027, 3-phenyl-4,5-dihydro-5-isoxazoleacetic acid]",protection from LPS lethality,"LPS-induced lethality; i.p., between 0.25 and 0.5 mg/mouse",dose-dependent protection
same,survival,"LPS-induced lethality; lethal dose of LPS (1 mg/mice), i.p. or oral",increased the survival
same,protection from LPS lethality,"LPS-induced lethality; oral, 2.5 mg/mouse",effective
same,protection from LPS lethality,"LPS-induced lethality; oral, 1.5 and 3 mg/mouse",dosed out
same,LPS-induced lethality,"LPS-induced lethality; prophylactic regime (−24 and −1 hour prior to LPS), oral and i.p.",significantly reducing
same,LPS-induced lethality,LPS-induced lethality; therapeutic administration,powerfully counteracts
same,increase in colon weight,DNBS-induced colitis; DNB colitis,significantly lower
same,weight loss,DNBS-induced colitis; DNB colitis,significant reduction
same,tissue damage (histology),"DNBS-induced colitis; DNB colitis, treated before induction",significantly reduced
same,progression of inflammatory colitis,"DNBS-induced colitis; DNB, p<0.001",significantly attenuated
same,neutrophils infiltrating,"DNBS-induced colitis; DNB-induced animals pretreated, means±SD",3.37±0.8 cells/high-power field
same,IL-18 in colon homogenates,DNBS-induced colitis; [3],decreased amounts
same,TNF-α in colon homogenates,DNBS-induced colitis; [3],decreased amounts
same,colon weight,DNBS-induced colitis; [3],decreased
same,features of colitis / degree of protection,"DNBS-induced colitis; DNBS, treatment from 1 hour after until 4 days after DNBS",markedly improved; also recorded: comparable to that afforded by 1 mg/kg of dexamethasone
same,inflammatory cell infiltration (myeloperoxidase activity),"DNBS-induced colitis; colon tissue, 5 days after induction, p<0.0001",significant reduction
same,TNF-α production,"[1]; IL-1β/INF-γ stimulation, both cell types, 48 hours",significantly repressed
same,cell viability,"[1]; IL-1β/INF-γ with co-treatment, 48 hours",over 60%
same,cell viability with exogenous rTNF-α,[1]; IL-1β/INF-γ/TNF-α,prevented the protective effect
same,inflammatory cytokines in the aqueous humor,[2]; LPS-induced increase,decreased
same,protein in the aqueous humor,[2]; LPS-induced increase,decreased
same,clinical inflammation score,[2]; administered 30 minutes after LPS,significantly lower
same,clinical inflammation grade,[2]; administered 12 hours post LPS,not observed
same,infiltration of cells into the iris ciliary body,"[2]; rat, in vivo",decreased
